Tested on: Caco-2 cells
Assay: Caco-2 permeability
Format: in vitro ADME
Settings: Caco-2 bidirectional assay
Procedure: (iii) Caco-2 Permeability
Caco-2 cells were seeded onto Millipore Multiscreen plates at 1×10^5 cells/cm^2, and were cultured for 20 days. Assessment of compound permeability was subsequently conducted. The compounds were applied to the apical surface (A) of cell monolayers and compound permeation into the basolateral (B) compartment was measured. This was performed in the reverse direction (B-A) to investigate active transport. A permeability coefficient value, Papp, for each compound, a measure of the rate of permeation of the compound across the membrane, was calculated. Compounds were grouped into low Papp</=1.0×10^6 cm/s) or high Papp>/=1.0×10^6cm/s) absorption potential based on comparison with control compounds with established human absorption.
For assessment of a compound's ability to undergo active efflux, the ratio of basolateral (B) to apical (A) transport compared with A to B was determined. Values of B−A/A−B>/=1.0 indicated the occurrence of active cellular efflux. All of the compounds tested through the Caco-2 permeability screen had Papp values >/=[…].

B−A/A−B asymmetry index: less than 1.0
SMILES: CN1CCN(Cc2cc3nc(-c4cccc(O)c4)nc(N4CCOCC4)c3s2)CC1 [PI540]

— patent US7776856B2, “Pharmaceutical compounds” (F. Hoffman-La Roche AG, priority 2004, dated 2010)
